# Laboratory results: US8518884B2, “Methods for treating atrial or ventricular arrhythmias by administering a G-protein alpha inhibitor” (Northwestern University, priority 2008, dated 2013)
# Entries after “also recorded” stand apart in the source; their conditions may differ. Ends that are not written are not given here.
# Columns and labels:
# [1] = test system: M2R-stimulated Gi activation; test: Cholinergic (CCh) modulation of Ca2+ transients in isolated canine left atrial myocytes; type: cell-based
# Excerpt: (§1) Cardiac myocytes were isolated from the canine left atrium, loaded with fluo-4 (fluorescent Ca^2+ indicator), and electrically field-stimulated. […] The effects can be summarized quantitatively (SEE FIG. 12B).
# [2] = test system: βAR-stimulated Gs activation; test: β-adrenergic (ISO) modulation of Ca2+ transients in isolated canine left atrial myocytes; type: cell-based; settings: 1 μM ISO (βAR saturating); within 20-30 seconds
# Excerpt: as §1
# [3] = test system: left atrium; test: Functional studies in pacing-induced CHF and control canine subjects: left atrial ERPs under autonomic manipulation; type: in vivo; settings: both groups (CHF and control)
# Description: Canine subjects were divided into three groups. In group 1, CHF was induced by rapid ventricular pacing for 4 weeks (i.e. when the animals began to develop clinical heart failure. In group 2, pacing was performed for only 3 weeks. Group three were control canine subjects not subjected to rapid ventricular pacing. At the end of follow up period, high-density epicardial mapping was performed in the PVs, the PLA and the LAA. ERPs were obtained at multiple sites under the following conditions: a) baseline (BSL), b) left cervical vagal stimulation at 20 Hz (VS), c) beta-stimulation with isoproterenol (ISO), d) beta-blockade with propranolol (PROP) and e) beta-blockade+vagal stimulation (P+VS). VS caused significant mean ERP shortening in all three groups. […] PROP increased the VS effect on ERP in normal controls, but produced an attenuation of this effect in the CHF group (SEE FIG. 37). In this CHF model, after 4 weeks of pacing, an increased vagal effect on atrial refractoriness, an increased cumulative sympathetic effect, and a change in the sympatho-vagal interactions of the left atrium were observed. After 3 weeks of pacing, there is pronounced autonomic remodeling, with evidence of P as well S nerve upregulation in the PVs and left atrium. Both P and S upregulation are more pronounced in the PLA (and to a lesser extent in the PVs) than in the rest of the left atrium. While vagal responsiveness in the left atrium is unaltered at 3 weeks of pacing, it increases after 4 weeks of pacing. […] The autonomic remodeling becomes more pronounced with increasing duration of pacing. […] The increase in β1 binding is consistent with the increase in sympathetic innervation. […] The P upregulation noted in the left atrium in CHF is a compensatory response to S upregulation that occurs in response to CHF. […] However, since normal atria are more densely innervated with vagal fibers (than the ventricle) and also contain a significant amount of IKAch, the compensatory response is likely to be more vigorous in the atrium. The compensatory increase in vagal innervations, and resulting increase in IKAch, may contribute to increased AF substrate.
# [4] = test system: posterior left atrium (PLA); test: Topical tropicaimide on the PLA: vagal stimulation (VS)-induced ERP shortening and AF inducibility; type: in vivo, canine
# Description: P nerve fibers, and related muscarinic receptors, are preferentially located in the PLA and selective cholinergic blockade in the PLA can be successfully performed to alter vagal AF substrate. PLA, PVs and left atrial appendage (LAA) in canine subjects were immunostained for S nerves (dopamine beta-hydroxylase), P nerves (acetylcholine esterase), and M2 receptors. Epicardial electrophysiologic mapping was performed in 7 additional canine subjects. The PLA was the most richly innervated with nerve bundles containing P and S fibers (PV=0.9±1, PLA=3.2±2.5, LAA=0.17±0.3/cm^2; p<0.001); nerve bundles were located in fibrofatty tissue as well as in surrounding myocardium. P predominated over S fibers within bundles (P/S: PV=4.4, PLA=7.2, LAA=5.8). M2 distribution was also most pronounced in the PLA (M2 stained cells/cm^2: PLA=17.8±8.3, PV=14.3±7.3, LAA=14.5±8, p=0.012). A particularly high concentration of P fibers was found in the ligament of Marshall (in the PLA). The ligament of Marshall could be traced back to a major branch of the left cervical vagus nerve. The nerve in turn innervates the PVs and the rest of the PLA. The PLA surface is stained for acetylcholinesterase. […] A small nerve branch (N) originating in the LOM is seen to innervate the LSPV. […] Cholinergic nerves from the PLA fat pad (PFP) can be seen to innervate the LIPV. […] 1% tropicaimide was then applied topically to the PLA.
# Using the canine model outlined below, 1% tropicaimide (a cholinergic blocker) was applied topically to the epicardial aspect of the PLA in canine subjects. Effective refractory periods were measured at multiple sites in the PLA a) at baseline, b) after left vagal stimulation, c) after tropicaimide application to the PLA and d) in the presence of vagal stimulation after tropicaimide application. […] The robust autonomic profile of the PLA and its role in AF (both in normal as well as diseased hearts), thereby making it an attractive target for autonomic manipulation by regional delivery of Gα C-terminal peptides. […]
# [5] = test system: Gαo1; test: Gαo1 minigene in the PLA: vagal and CCh induced ERP shortening; type: in vivo, dog; settings: 10 mg minigene in PLA; day 3; compared to GαR dogs
# Description: This Example describes the use of a Gαo1 inhibitor to treat arrhythmia is a subject. In one animal, the following was performed: • Day 1: Open-chest mapping was performed via a left lateral thoracotomy. 10 mg of minigene expressing Gαo1 peptide was then injected in the PLA, followed by electroporation. • Day 3: A left lateral thoracotomy was performed again. The left vagus nerve was isolated. ERPs were measured in the PLA, PV and LAA in the absence and presence of vagal stimulation. Data from the above animal was compared with other dogs that received other minigenes (i.e. Gαi2, Gαi2+Gαo1 and GαR (see Aistrup et al, Heart Rhythm 2011)
# [6] = test system: Gαi; test: cp-Gα peptide delivery to the PLA with electroporation/sonoporation: ERPs and AF inducibility with vagal stimulation; type: in vivo, canine
# Description: High-density epicardial mapping was performed in the PVs (2×2 electrodes), the PLA (7×3 electrodes) and the left atrial appendage (LAA) (7×3 electrodes) of canine subjects. Effective refractory periods (ERPs) were obtained at baseline and in response left cervical vagal stimulation (VS) (20 Hz). Cp-Gαi2 peptide (200-330 nM) was then applied topically to the epicardial aspect of the PLA in a canine subgroup. Cp-Gαi3 peptide (200-330 nM) was then applied topically to the epicardial aspect of the PLA of a second subgroup. Electroporation was performed after the application of peptide to enhance intracellular delivery of the peptide. ERPs were then re-measured in the presence and absence of VS.
# In canine subjects, high-density epicardial mapping was performed in the PVs (2×2 electrodes), the PLA (7×3 electrodes) and the left atrial appendage (LAA) (7×3 electrodes). Effective refractory periods (ERPs) were obtained at baseline and in response left cervical vagal stimulation (VS) (20 Hz). FLAG-tcp-Gα peptides (200 nM-3 μM of cp-Gαi1/2 (N=8 canine subjects), cp-Gαi3 (N=4 canine subjects), or random-sequence cp-GαoR peptide (N=3 canine subjects) were injected into the PLA epicardium of the canine subjects followed by either sonoporation or electroporation. In a subgroup of the canine subjects, sonoporation or electroporation alone was performed without introduction of cp-Gαi peptide. ERPs were then re-measured in the presence and absence of VS. In a separate set of control animals, ERPs were measured before and after the administration of systemic autonomic blockade with propranolol (0.2 mg/kg)+atropine (0.04 mg/kg).
# [7] = test system: canine subject atrial cardiomyocytes; test: Toxicity by rapid automated tetrazolium dye based assay (MTT); type: cell-based; settings: 5 μM peptide
# [8] = 200 nM-3 μM injected into PLA + sono/electroporation
# [9] = during VS, after peptide delivery into PLA
compound,measurement,setting,value
"C[N+](C)(C)CCOC(N)=O [CCh, carbachol, reference compound]",effect on cellular Ca2+ transients,"[1]; 10 μM CCh (M2R saturating), field-stimulated myocytes",nearly eliminated
"CC(C)NCC(O)c1ccc(O)c(O)c1 (stereo not shown) [ISO, isoproterenol]",effect on Ca2+ transients,[2],appreciably augmented
same,effect on mean ERP compared to PROP,[3],significantly shortened
CCN(Cc1ccncc1)C(=O)C(CO)c1ccccc1 (stereo not shown) [tropicaimide],VS-induced ERP shortening,"[4]; 1% tropicaimide topically to PLA, PLA, PV and LAA",significantly attenuated; also recorded: either entirely eliminated or at least significantly attenuated
same,decrease in AF inducibility,"[4]; 1% tropicaimide topically to PLA, vagal stimulation",92%
same,AF induction with extrastimulus testing,"[4]; after 1% tropicaimide to PLA, presence or absence of vagal stimulation",could not induced
IANNLRGCGLY [Gαo1 minigene],CCh induced ERP shortening,[5],significant reduction
same,vagal induced ERP shortening,[5],significant reduction
"cp-Gαi2: chimeric peptide: cell-penetrating poly-arginine N-terminal sequence and C-terminal last 11 residues of Gαi (IKNNLKDCGLF; also: cell-penetrating poly-arginine N-terminal sequence, length not given here)",attenuation of CCh effect on Ca2+ transients,"[1]; 0.1-3 μM peptide superfusion 10-20 min, CCh",significantly attenuate
same,VS induced ERP shortening,"[6]; 200-330 nM topical to PLA + electroporation, PLA, PV and LAA",significantly attenuated
"cp-Gαi peptide: cell-penetrating Gαi C-terminal peptide (cp-Gαi1/2 or cp-Gαi3), isoform not specified at the place (IKNNLKDCGLF; also: cell-penetrating sequence attached, not shown)",enhancement of cell viability,[7],~8%
same,VS-induced ERP shortening in the LAA,[6]; [8],Elimination
same,VS-induced ERP shortening in the PLA,[6]; [8],eliminated
same,ERP heterogeneity (coefficient of variation of all ERPs in PLA),[6]; after peptide application,no change
same,AF inducibility in the presence of VS,[6]; after peptide delivery to PLA,significantly decreased
same,reduction in AF inducibility during VS,[6]; compared to vagal stimulation at baseline,69%
same,AF episodes >5 seconds in duration induced,[6]; [9],10 episodes
same,AF inducibility index,[6]; [9],0.05
same,atrial or ventricular arrhythmias induced by peptide injection,[6]; with or without sono/electroporation,No atrial or ventricular arrhythmias were induced
